Reference: patent publication US20260158009A1 (GENZYME CORPORATION, priority 2023, published 2026)

What was measured:
[1] = molecular target: T1, hRIPK1 (aa 1-375) fusion protein (Homo sapiens, UniProt Q13546); assay: ADP-Glo kinase assay: catalytic activity of RIPK1 (autophosphorylation, conversion of ATP to ADP); type: biochemical
T1 construct: hRIPK1 (aa 1-375) fusion protein
T1 sequence (Q13546 1-375): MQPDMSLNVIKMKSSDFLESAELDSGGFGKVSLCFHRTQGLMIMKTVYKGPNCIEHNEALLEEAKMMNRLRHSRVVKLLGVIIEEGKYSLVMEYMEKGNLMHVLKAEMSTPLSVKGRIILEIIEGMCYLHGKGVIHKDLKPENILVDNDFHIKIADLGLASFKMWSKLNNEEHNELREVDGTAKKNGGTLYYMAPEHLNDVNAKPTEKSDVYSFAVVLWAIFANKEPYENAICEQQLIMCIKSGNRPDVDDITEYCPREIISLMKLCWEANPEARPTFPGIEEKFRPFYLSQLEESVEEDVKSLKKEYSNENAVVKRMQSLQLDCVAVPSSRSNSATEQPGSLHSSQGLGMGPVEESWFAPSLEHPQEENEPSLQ
In short: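 hRIPK1 (aa 1-375) fusion protein (3.6 μg/ml final) was preincubated 30 min at rt with compound (33300-1.69 nM, 1% DMSO), then 50 μM ATP was added for 240 min at rt. ADP from autophosphorylation was measured by ADP-Glo luminescence and curves fitted by nonlinear regression.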

U937 cells = assay: Cellular assay in U937 cells: activity of RIPK1 inhibitors on TNFα/zVAD.fmk-induced cell death (necroptosis), CellTiter 96 AQueous (MTS) readout; type: cell-based; conditions: Homo sapiens, U-937
In short: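 Necroptosis was measured by viable-cell MTS reduction (4 h, absorbance 490 nm) after overnight (18–24 h) 37° C culture. Cell suspensions of U937 cells carried TNFα (100 ng/ml) plus zVAD.fmk (50 μM) before compound was added. A 10-point curve (10 μM–0.26 nM or 1 μM–0.07 nM) was run in duplicate, normalised to the control lacking TNFα/zVAD.fmk.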

IC50 [1] [nM]	SMILES	IC50 (U937 cells) [nM]
75	O=C([C@H]1CC[C@H](Cn2cnc3cc(F)ccc32)CC1)N1OCC[C@H]1c1cnccn1 [compound 92, trans-(4-((5-fluoro-1H-benzo[d]imidazol-1-yl)methyl)cyclohexyl)((S)-3-(pyrazin-2-yl)isoxazolidin-2-yl)methanone]	132
12	Cc1ncc(C[C@H]2CC[C@H](C(=O)N3OCC[C@H]3c3cc(F)cc(C#N)c3)CC2)cc1C#N [compound 268, trans-5-[[4-[(3S)-3-(3-cyano-5-fluoro-phenyl)isoxazolidine-2-carbonyl]cyclohexyl]methyl]-2-methyl-pyridine-3-carbonitrile]	5
18	N#Cc1cc(F)cc([C@@H]2CCON2C(=O)[C@H]2CC[C@H](Cc3cc(F)cc(CCO)c3)CC2)c1 [compound 282, trans-3-fluoro-5-[(3S)-2-[4-[[3-fluoro-5-(2-hydroxyethyl)phenyl]methyl]cyclohexanecarbonyl]isoxazolidin-3-yl]benzonitrile]	10
13	CNC(=O)c1ccc(F)c(C[C@H]2CC[C@H](C(=O)N3OCC[C@H]3c3cncc(C#N)c3)CC2)c1 [compound 176, trans-3-[[4-[(3S)-3-(5-cyano-3-pyridyl)isoxazolidine-2-carbonyl]cyclohexyl]methyl]-4-fluoro-N-methyl-benzamide]	15
24	N#Cc1ccc2cn(C[C@H]3CC[C@H](C(=O)N4OCC[C@H]4c4cc(F)cc(F)c4)CC3)nc2c1 [compound 31, trans-2-((4-((S)-3-(3,5-difluorophenyl)isoxazolidine-2-carbonyl)cyclohexyl)methyl)-2H-indazole-6-carbonitrile]	19
19	Cc1ccc([C@@H]2CCON2C(=O)[C@]2(C)CC[C@@H](Cc3cc(C)c4nc(C)nn4c3)CC2)cn1 [compound 400, trans-[4-[(2,8-dimethyl-[1,2,4]triazolo[1,5-a]pyridin-6-yl)methyl]-1-methylcyclohexyl]-[(3S)-(6-methylpyridin-3-yl)-1,2-oxazolidin-2-yl]methanone]	9
19	N#Cc1cc(F)cc([C@@H]2CCON2C(=O)[C@H]2CC[C@H](Cn3ncc4c(F)cc(C#N)cc43)CC2)c1 [compound 32, trans-1-((4-((S)-3-(3-cyano-5-fluorophenyl)isoxazolidine-2-carbonyl)cyclohexyl)methyl)-4-fluoro-1H-indazole-6-carbonitrile]	3
131	NC(=O)c1ccc2cnn(C[C@H]3CC[C@H](C(=O)N4OCC[C@H]4c4ccccn4)CC3)c2c1 [Compound 230, trans-1-[[4-[(3S)-3-(2-pyridyl)isoxazolidine-2-carbonyl]cyclohexyl]methyl]indazole-6-carboxamide]	376
34	Cc1nc2cc(F)ccc2n1C[C@H]1CC[C@H](C(=O)N2OCC[C@H]2c2cc(F)cc(F)c2)CC1 [compound 51, trans-((S)-3-(3,5-difluorophenyl)isoxazolidin-2-yl)(4-((5-fluoro-2-methyl-1H-benzo[d]imidazol-1-yl)methyl)cyclohexyl)methanone]	17
33	Cc1ccc([C@@H]2CCON2C(=O)[C@H]2CC[C@H](Cc3ccc4c(c3)C(=O)NC4)CC2)cn1 [compound 157, trans-6-[[4-[(3S)-3-(6-methyl-3-pyridyl)isoxazolidine-2-carbonyl]cyclohexyl]methyl]isoindolin-1-one]	396
125	Cc1ccc([C@@H]2CCON2C(=O)[C@H]2CC[C@H](Cc3cc(C)c4nc(C)nn4c3)CC2)cn1 [compound 325, trans-[4-[(2,8-dimethyl-[1,2,4]triazolo[1,5-a]pyridin-6-yl)methyl]cyclohexyl]-[(3S)-3-(6-methyl-3-pyridyl)isoxazolidin-2-yl]methanone]	108
26	COc1cc(C[C@H]2CC[C@H](C(=O)N3OCC[C@H]3c3cnc(C)c(F)c3)CC2)cn2nc(C)nc12 [compound 342, trans-[(3S)-3-(5-fluoro-6-methylpyridin-3-yl)-1,2-oxazolidin-2-yl]-[4-[(8-methoxy-2-methyl-[1,2,4]triazolo[1,5-a]pyridin-6-yl)methyl]cyclohexyl]methanone]	8
17	Cc1nc2c(C)cc(C[C@H]3CC[C@H](C(=O)N4OCC[C@H]4c4cc(F)cc(C#N)c4)CC3)cn2n1 [compound 288, trans-3-[(3S)-2-[4-[(2,8-dimethyl-[1,2,4]triazolo[1,5-a]pyridin-6-yl)methyl]cyclohexanecarbonyl]isoxazolidin-3-yl]-5-fluoro-benzonitrile]	4
30	N#Cc1cc(F)cc([C@@H]2CCON2C(=O)[C@H]2CC[C@H](Cn3ncc4cc(C(N)=O)ccc43)CC2)c1 [compound 72, trans-1-((4-((S)-3-(3-cyano-5-fluorophenyl)isoxazolidine-2-carbonyl)cyclohexyl)methyl)-1H-indazole-5-carboxamide]	10
27	Cc1nc(C[C@H]2CC[C@H](C(=O)N3OCC[C@H]3c3cc(F)cc(C#N)c3)CC2)cs1 [compound 239, trans-3-fluoro-5-[(3S)-2-[4-[(2-methylthiazol-4-yl)methyl]cyclohexanecarbonyl]isoxazolidin-3-yl]benzonitrile]	5
21	O=C([C@H]1CC[C@H](Cc2ccc(C3(O)COC3)cc2)CC1)N1OCC[C@H]1c1ccc(F)cc1 [compound 170, trans-[(3S)-3-(4-fluorophenyl)isoxazolidin-2-yl]-[4-[[4-(3-hydroxyoxetan-3-yl)phenyl]methyl]cyclohexyl]methanone]	15
17	N#Cc1cc(F)cc([C@@H]2CCON2C(=O)[C@H]2CC[C@H](Cc3cc(F)c4c(c3)C(=O)NC4)CC2)c1 [compound 219, trans-3-fluoro-5-[(3S)-2-[4-[(7-fluoro-3-oxo-isoindolin-5-yl)methyl]cyclohexanecarbonyl]isoxazolidin-3-yl]benzonitrile]	3
114	Cc1nc([C@@H]2CCON2C(=O)[C@H]2CC[C@H](Cn3cc4ccc(C(N)=O)cc4n3)CC2)cs1 [Compound 233, trans-2-[[4-[(3S)-3-(2-methylthiazol-4-yl)isoxazolidine-2-carbonyl]cyclohexyl]methyl]indazole-6-carboxamide]	384
14	Cc1nn(C[C@H]2CC[C@H](C(=O)N3OCC[C@H]3c3cc(F)cc(F)c3)CC2)c2ccccc12 [compound 60, trans-((S)-3-(3,5-difluorophenyl)isoxazolidin-2-yl)(4-((3-methyl-1H-indazol-1-yl)methyl)cyclohexyl)methanone]	5
18	CNC(=O)c1ccc(F)c(C[C@H]2CC[C@H](C(=O)N3OCC[C@H]3c3ccc(F)cc3)CC2)c1 [compound 173, trans-4-fluoro-3-[[4-[(3S)-3-(4-fluorophenyl)isoxazolidine-2-carbonyl]cyclohexyl]methyl]-N-methyl-benzamide]	17
27	O=C([C@H]1CC[C@H](Cn2cc3cc(F)ccc3n2)CC1)N1OCC[C@H]1c1cc(F)cc(F)c1 [compound 57, trans-((S)-3-(3,5-difluorophenyl)isoxazolidin-2-yl)(4-((5-fluoro-2H-indazol-2-yl)methyl)cyclohexyl)methanone]	41
9	Cc1ccc(C[C@H]2CC[C@H](C(=O)N3OCC[C@H]3c3cncc(C#N)c3)CC2)cc1C(N)=O [compound 158, trans-5-[[4-[(3S)-3-(5-cyano-3-pyridyl)isoxazolidine-2-carbonyl]cyclohexyl]methyl]-2-methyl-benzamide]	33
21	N#Cc1cncc([C@@H]2CCON2C(=O)[C@H]2CC[C@H](Cc3ccc(F)c(C(N)=O)c3)CC2)c1 [compound 194, trans-5-[[4-[(3S)-3-(5-cyano-3-pyridyl)isoxazolidine-2-carbonyl]cyclohexyl]methyl]-2-fluoro-benzamide]	10
5	CNC(=O)c1cc(F)cc(C[C@H]2CC[C@H](C(=O)N3OCC[C@H]3c3cncc(C#N)c3)CC2)c1 [compound 163, trans-3-[[4-[(3S)-3-(5-cyano-3-pyridyl)isoxazolidine-2-carbonyl]cyclohexyl]methyl]-5-fluoro-N-methyl-benzamide]	10
53	Cc1nc2cc(C[C@H]3CC[C@H](C(=O)N4OCC[C@H]4c4csc(C)n4)CC3)ccn2n1 [compound 372, trans-[(S)-3-(2-Methyl-thiazol-4-yl)-isoxazolidin-2-yl]-[4-(2-methyl-[1,2,4]triazolo[1,5-a]pyridin-7-ylmethyl)-cyclohexyl]-methanone]	103
24	O=C([C@H]1CC[C@H](Cn2cnc3ccc(F)cc32)CC1)N1OCC[C@H]1c1cc(F)cc(F)c1 [compound 113, trans-((S)-3-(3,5-difluorophenyl)isoxazolidin-2-yl)(4-((6-fluoro-1H-benzo[d]imidazol-1-yl)methyl)cyclohexyl)methanone]	3
